In patent US11459586B2, “Methods for increasing efficiency of nuclease-mediated gene editing in stem cells” (President and Fellows of Harvard College, priority 2016, dated 2022):
Peptide text beside a SMILES is read from it. * marks the point of attachment. Cbz = O=C(OCc1ccccc1)*; CH2F = FC*

Key:
[1] = test system: human iPSC containing a doxycycline-inducible Cas9 nuclease; test: Cas9 nuclease toxicity in doxycycline-inducible Cas9 hiPSC (decline of CFP+EGFP+ cells); format: cell-based; settings: zVAD added
Source text: FIGS. 1A-C. Cas9 nuclease toxicity in human iPSC only occurs with sgRNAs that target the human genome. FIG. 1A. A human iPSC line containing a doxycycline-inducible Cas9 nuclease was infected with lentivirus that constitutively expresses CFP together with an sgRNA. Three days after infection, each culture was divided into several wells and treated with the indicated concentrations of doxycycline for up to 14 days. FIG. 1B. At the indicated time points, the percent of CFP^+ of live single cells was determined by flow cytometry. […] FIG. 1C. 14 days after doxycycline induction, iPSC infected with the Thy1 sgRNA were stained for expression of the Thy1 surface marker and analyzed by flow cytometry. The percent of Thy1-negative edited cells gated on the CFP^+ infected cells is shown for varying concentrations of doxycycline. Results are representative of three independent experiments.
FIGS. 2A-B. Nuclease-mediated toxicity in human iPSC can be rescued by overexpression of dominant negative p53 or anti-apoptotic Bcl-2 family members. FIG. 2A. […] At the indicated time points, the percent of CFP EGFP^+ iPSC was determined by flow cytometry. […]
FIG. 13. […] At the indicated time points, the percent of CFP^+EGFP^+ iPSC was determined by flow cytometry. […]

human iPSC = format: cell-based
Procedure: FIGS. 10A-F. Effect of Caspase and p38 MAPK inhibitors on survival and gene targeting of human iPSC. FIG. 10A and FIG. 10B. Mouse Thy1 gene targeting scheme. Human iPSC were nucleofected with the mThy1 targeting vector, Cas9 nuclease, and Thy1 sgRNA expressing plasmid or pUC19 empty vector. Nucleofected cells were evenly divided and plated onto plain media (mTeSR1+10 μM Y-27632 ROCK inhibitor), or media supplemented with the indicated chemical inhibitor. For specific caspase inhibitors, the principal caspase they target is noted in parentheses. […] FIG. 10C. Two days after nucleofection, viable cells were counted. Error bars indicate s.e.m. of technical duplicates. Lines mark the count levels for nucleofected cells in plain media with or without sgRNA. FIG. 10D. Five days after transfection, cells were analyzed by flow cytometry for mThy1 and hThy1 expression. The percent of mThy1^+hThy1^− (bottom of each bar) and mThy1^+hThy1^+ (top of each bar) cells of live single cells is indicated. Lines mark the levels for cells in plain media. […] FIG. 10E. FACS plots of human iPSC transfected with the mThy1 targeting vector, Cas9 nuclease, and Thy1 Left and Right sgRNAs. Cells were subsequently cultured for 5 days in plain media±50 μM zVAD and ±10 μM SB203580. FIG. 10F. Human iPSC cultures were single cell FACS sorted into 96-well tissue culture plates containing a MEF feeder layer and hES media supplemented with SMC4 inhibitors±50 μM zVAD for eight days. Ten days after sorting, the number of surviving iPSC colonies was counted (from 190 cells sorted). PGP1 hiPSC lines created using retroviral vectors or non-integrating methods were both tested.
Pluripotency of iPSC cultures was verified by flow cytometry staining using anti-human Tra-1/60 PE (TRA-1-60, BD) and anti-human Oct3/4 eFluor 660 (EM92, eBioscience) with the fixation buffer sold under the trademark BD CYTOFIX™ and permeabilization buffer sold under the trademark PHOSFLOW™ Perm/Wash buffers. Human g-band karyotype analysis was done by Cell Line Genetics. Viable cell counts were measured with the cell analyzer sold under the trademark MUSE® Count & Viability Assay kit (EMD Millipore). Anti-human HLA-A2 APC (BB7.2) and anti-human HLA-BC PE (B1.23.2) were purchased from eBioscience. Human iPSC cultures were treated with 50 ng/ml recombinant interferon gamma (eBioscience) for 2 days prior to HLA staining.
Plasmids were purified using the plasmid DNA purification kit sold under the trademark Qiagen ENDOFREE® Plasmid Maxi kit and nucleofected into iPSC cells using the Lonza 4D-Nucleofector X unit (Buffer P3, Program CB-150). For each 20 μl nucleofection reaction, 0.2-0.5×106 iPSC were transfected with up to 4 μg of plasmid DNA. Post-nucleofection, iPSC were plated onto solubilized basement membrane matrix secreted by Engelbreth-Holm-Swarm (EHS) mouse sarcoma cells sold under the trademark […]®-coated wells containing feeder-free cell culture medium sold under the trademark MTESR1™ media with 10 μM Y-27632 plus other chemical inhibitors when noted. Later experiments included 50 μM zVAD-fmk (Bachem) for 1 day and 10 μM SB203580 (Biovision) for 4-5 days post transfection (see FIGS. 5, 6, 11, and 12). For FIG. 6 (ssODN transfection), 200 ng/ml recombinant B 18R (eBioscience), was also added to the culture for 5 days post transfection.
The following inhibitors were added to the hiPSC culture at the concentrations and time periods indicated in the Examples below. • 1. p53 or Bax inhibitors: cyclic pifithrin α (StemCell Technologies); pifithrin (Tocris); peptide V5, peptide control, iMAC1 and iMAC2 (EMD Millipore); N-acetyl cysteine and 4-hydroxy TEMPO (TEMPOL) (Sigma). • 2.

With `CC(NC(=O)C(NC(=O)OCc1ccccc1)C(C)C)C(=O)NC(CC(=O)O)C(=O)CF` (stereo not drawn) [zVAD] (Cbz-Val-Ala-Asp-CH2F; configuration not given here) the “doxycycline-induced Cas9 nuclease toxicity” value [1] was “did not affect”, the anoikis rescue (human iPSC; lower concentration, 25 μM) was “did not show as much anoikis rescue” and the “rescue of hiPSC from cell death (anoikis) after nucleofection” value (human iPSC; viable cells two days after nucleofection, sgRNA plasmid or pUC19 control) was “rescued cells transfected with an sgRNA, and also those transfected with the pUC19 control”.
